According to US20140072654A1, “CANCER WITH METABOLIC THERAPY AND HYPERBARIC OXYGEN” (priority 2011, published 2014):
Where “and” joins values, the source holds several entries; their conditions need not be identical. Equal entries are not always repeated. Entries after “also recorded” stand apart in the source; their conditions may differ.

Legend:
[1] = tested on: rats exposed to hyperbaric oxygen (5 ATA O2); assay: CNS oxygen toxicity: latency to seizure (EEG) in rats in hyperbaric oxygen; format: in vivo, rat; conditions: for effect on latency to seizure / CNS-OT (words) / increase in latency to seizure (LS) compared to control: rats; for effect on latency to seizure / CNS-OT (words): 5 ATA O2, ~3 ml (~10 g/kg) gavage 30 min before HBO2; for increase in latency to seizure (LS) compared to control: 5 ATA O2, ~10 g/kg intragastric 30 min before dive, control water
Description: Hyperbaric Chamber HBO2 system consisted of two main elements: 1) a plexiglass chamber (˜3 liter capacity, Diamond Box, Buxco, Electronics Inc., model PLY3114), that housed the rat during the experiment, and 2) a hyperbaric chamber (Reimers System Inc.—7.8 ATA MWP), that contained the plexiglass chamber and functioned as the pressure vessel. Both chambers were connected to an air compressor (oil-less rotary scroll compressor—model DK6086, Powerex).
During each experiment (hyperbaric hyperoxia), both the main chamber and the animal chamber were filled with air (dive profile). Rats were placed into the plexiglass chamber and allowed ten minutes to acclimate, at which time the plexiglass chamber was flushed with 100% 02. The animal was then allowed 15 minutes to acclimate before both chambers were compressed to 5 ATA (58.8 PSIG) at a rate of 0.7 ATA/min. The outer chamber was pressurized using air (capacity ˜205 liters) to minimize the risk of an electrical-induced fire. Each experiment was visually monitored via a live camera. LS was calculated from the moment at which the internal and the external chambers reached 5 ATA until the onset of convulsions, identified as high-amplitude, high frequency spikes lasting 10 to 30 sec, followed by polyspikes and wave formation concurrent with tonic-clonic motions of forelimbs and head. After the onset of seizures, the plexiglass chamber was flushed with air to quickly terminate seizure, and both chambers decompressed to sea level. Decompression rate was 1 ATA/min. Rats were then allowed a 15 min recovery period in air at 1 ATA before being removed from the chamber.
The radiotelemetry system consisted of an implantable 4ET radio-transmitter able to amplify and broadcast signals via a receiver (DSI PhysioTel, model RPC-2) connected to an acquisition interface unit (ACQ 7700 Ponemah) via electrical penetrations in the wall of the hyperbaric chamber. The acquisition interface unit was connected to a computer for real time data collection and storage. The same acquisition unit also recorded chamber pressure and temperature, which were measured, respectively, by […] directly connected to the acquisition system via BNC (Bayonet Neill-Concelman) cables.
Anticonvulsant effect of supplemental ketones was tested in rats exposed to hyperbaric oxygen (5 ATA O2). The effects of ketone esters (KEs) in preventing CNS-OT in rats were assessed before, during and after HBO2 exposure by measuring various parameters.
Adult male Sprague-Dawley rats (n=60) rats (300-450 grams; 3 to 6 month old) were obtained from Harlan, anesthetized in 3-5% isoflurane (in 02) and implanted with a 4ET radio-transmitter (Data Sciences International, DSI) using sterile surgical technique. The rat chamber was ventilated with pure O2 while the hyperbaric chamber, containing the radio-receiver (DSI), was pressurized in parallel with air to 5 atmospheres absolute (ATA). One pair of leads (positive and negative poles) was implanted in the costal diaphragm at the junction with the abdominal wall for diaphragmatic electromyogram (dEMG) signals, one pair of electrodes was inserted in the pectoral muscle to acquire electrocardiogram (ECG) data, and two pairs of wires were embedded in the skull between Bregma and Lambda, with one lead on either side of midline for each pair (EEG recordings). The EMG wires were not inserted into crural diaphragmatic muscle because of the high risk of pneumothorax due to the thinness of the muscle (419 to 630 μm). 4ET radio-transmitters also monitored core body temperature and physical activity. Rats were weighed immediately before surgery and subsequently once every 7 days, just prior to the weekly exposures to HBO2. After surgery, every animal recovered for ≧1 week. The rats were food (not water) deprived for 18 hours prior to the start of the experiment.
In each case animals were gavaged about 30 minutes prior to diving. […]

[2] = Acute ketosis with supplementation in healthy VM/Dk mice (blood glucose, blood βHB, urine AcAc after feeding); format: in vivo, mouse; conditions: for time after feeding to significant βHB elevation: after 8 hour fast; for ketone bodies elevated, βHB and AcAc: blood βHB and urine AcAc; for time for which blood glucose was significantly lowered: standard chow with ketone supplementation after 8 hour fast
Experimental: FIG. 34(A)-(C) are graphs showing effect of ketone supplementation on blood glucose, blood βHB, urine AcAc, and body weight in mice. (A-C) blood glucose; (B) blood levels of ketones; and (C) urine AcAc of healthy VM/Dk mice 0-12 hours after feeding following 8 hour fast. […] Error bars represent ±SEM.

[3] = tested on: VM-M3 metastatic cancer; assay: Survival time in VM-M3 mouse model of metastatic cancer; format: in vivo; conditions: for increase in mean survival time: Example 5, compared to controls; for % increase in survival time: Example 5, vs control (SD)
[4] = tested on: VM-M3/Fluc tumors; assay: Tumor bioluminescence in VM-M3/Fluc mice; format: in vivo, mouse; conditions: for tumor growth / bioluminescence: VM-M3 mice vs controls; for whole body tumor bioluminescence (ROI), representative animal: day 21 after tumor cell inoculation
[5] = rats; for decrease of blood pH compared to control after about 30 minutes / decrease of blood pH compared to control after about one hour: control pH ~7.5, mean
[6] = Blood ketones and glucose after oral gavage in rats; format: in vivo, rat; conditions: for blood AcAc level / blood acetone level / effect on blood glucose / blood BHB level (words): ~10 g/kg gavage; for blood acetone level: 60 minutes; for effect on blood glucose: over 4 hrs, relative to water; for blood BHB level (words): vs control water; for duration of elevation of blood ketones: single oral/intragastric administration
Experimental: Whole blood samples (10 μl) were acquired for analysis of glucose and BHB utilizing a commercially available glucose/ketone monitoring system (Nova Max® Plus) at time 0, 30, 60, 120, 180 and 240 min. In addition, heparinized blood samples (200 μl) were collected into Eppendorf tubes at time 0, 30, 60, 120, 180 and 240 min. Samples were processed for the detection and quantification of BHB, AcAc, and acetone. Briefly, samples were chilled on ice for 30 s, centrifuged in a micro-centrifuge (13,000 G) for 3-5 min and plasma (>100 μl), treated with reducing reagent of cold 0.2M sodium borodeuteride (NaBD4; Sigma, 205591, CAS 15681-89-7) dissolved in 0.1M NaOH (8.4 mg NaBD4 in 1 ml of 0.1M NaOH) and then immediately frozen on dry ice before storing at −80° C. Acetone was analyzed at the 60 minute time point, which was the predicted peak of blood AcAc levels (Desrochers et al. 1995). 300 μl of whole blood were collected in addition to the above collections, stabilized with cold 0.2M NaBD4, and then immediately frozen on dry ice. Samples were stored at −80° C. until analyzed for ketones. Internal standards of [^2H6]BHB or [^2H8]isopropanol were added to the treated plasma or blood samples (50 μl or 15 μl) and the BHB, AcAc (as M+1 of BHB) or acetone (as 2-propanol) metabolites were analyzed by gas chromatography-mass spectrometry (GC-MS) using an Agilent 5973 mass spectrometer, linked to a 6890 gas chromatograph equipped with an autosampler. Briefly, GC-MS conditions were either EI or CI mode (electron or chemical ionization mode); the samples were detected by selected ion monitoring as the BHB- and AcAc-trimethylsilyl derivatives (EI) or the derivative of acetone-pentafluorobenzoyl (CI).
KE and BD. […] Blood was collected and processed as described in the previous example.
Ketone measurements were taken at 30, 60, 120, 180 and 240 minutes. Blood plasma was treated with sodium borodeuteride (NaB2H4) to stabilize ketone concentration and then assayed by GC-MS. The rapid rise relating to blood ketones from BD-AcAc2 is due primarily from rapid desterfication in blood and tissues.

[7] = Blood glucose, blood βHB and body weight of VM-M3 survival study mice
[8] = single oral administration ~10 g/kg

Compound | effect on latency to seizure / CNS-OT (words) [1] | time after feeding to significant βHB elevation [2] [h] | ketone bodies elevated, βHB and AcAc [2] | time for which blood glucose was significantly lowered [2] [h] | increase in mean survival time [3] | % increase in survival time [3] | tumor growth / bioluminescence [4] | whole body tumor bioluminescence (ROI), representative animal [4] | blood pH change, mild nonpathological acidosis (FIG. 25) [5] | decrease of blood pH compared to control after about 30 minutes [5] | decrease of blood pH compared to control after about one hour [5] | blood BHB [6, 8] [mM] | blood AcAc level [6] | blood acetone level [6] | effect on blood glucose [6] | blood BHB level (words) [6] | increase in latency to seizure (LS) compared to control [1] | other results
C[C@H](O)CCO [BD, R,S-1,3-butanediol, reference compound] | did not delay CNS-OT; also recorded: did not increase LS | 1 | only elevated βHB | 8 | approximately 16 days | 51% | profound effect | 1.739×10^6 | from 7.45 to 7.35 | 0.05 | 0.1 | > 5 | only modest elevation in AcAc relative to KE; also recorded: low or undetectable | low or undetectable | no significant effect on blood glucose levels | significant increase in BHB |  | effect on latency to seizure / CNS-OT (words) ([1]; listed as 1,3-BD): lack of efficacy; effect on latency to seizure / CNS-OT (words) ([1]; listed as 1,3-butanediol): no effect on seizure latency; blood BHB level (words) ([6]; listed as 1,3-butanediol): elevated blood levels of B-hydroxybutyrate
CC(=O)CC(=O)OCCC(C)O (stereo not drawn) [BD-AcAc, R,S-1,3-butanediol acetoacetate monoester] | significantly increased the latency time to seizure |  |  |  |  |  |  |  |  |  |  |  |  |  |  |  | 285% | latency time to seizure, individual rat (EEG) ([1]; 5 ATA O2 (60 PSI), same rat 8 minutes without ketone ester): 110 min; effect on latency to seizure / CNS-OT (words) ([1]; listed as 1,3-BD AcAc monoester): delays CNS-OT
CC(=O)CC(=O)OCCC(C)OC(=O)CC(C)=O (stereo not drawn) [KE, R,S-1,3-butanediol acetoacetate diester] |  | 4 | elevated both βHB and AcAc | 4 | approximately 22 days | 69% and 69.2* % | drastically reduced tumor progression | 1.536×10^6 | from 7.45 to 7.35 | 0.05 | 0.1 | > 3 | increased significantly more; also recorded: significant increase in BHB and AcAc at 30 minutes | significantly higher at 60 minutes | no significant effect on blood glucose levels | significant increase in BHB and AcAc at 30 minutes | 574±115% and 574±116% | effect on latency to seizure / CNS-OT (words) ([1]; listed as 1,3-BD AcAc diester): delays CNS-OT; effect on latency to seizure / CNS-OT (words) ([1]; listed as BD-AcAc2): most effective KE against CNS-OT; also recorded: significantly increased the latency time to seizure; increase in latency to seizure (LS) compared to control ([1]; listed as BD-AcAc2): > 570%; increase in latency to seizure (LS) compared to control ([1]; listed as dKE): 570%; Mean survival ([3]; Example 5, supplemental ketones, control (SD) 31.2): 52.8 days; increase in blood pO2 levels ([5]; sustained): approximately 30%; blood glucose vs controls [7]: lower blood glucose; blood ketones (βHB) vs controls [7]: elevated blood βHB; total ketones about 30 minutes after gavage ([6]; 10 g/kg gavage): > 5 mM; blood AcAc [6, 8]: > 3 mM; sustained elevation of total ketones ([6]; single oral administration, for over 4 hrs): > 6 mM; duration of elevation of blood ketones [6]: 4 h and > 4 h; duration of elevation of blood ketones ([6]; listed as BD-AcAc2): over 4 h; blood acetone ([6]; within about 60 minutes after single oral administration): ~0.7 mM; effect on blood glucose ([6]; listed as BD-AcAc2): does not elevate blood glucose
(R)-1,3-butanediol ester [BHB ester, reference compound] |  |  |  |  |  |  |  |  |  |  |  |  |  |  |  | elevated blood levels of B-hydroxybutyrate |  | effect on latency to seizure / CNS-OT (words) ([1]; listed as 1,3-BD BHB ester): lack of efficacy; effect on latency to seizure / CNS-OT (words) ([1]; listed as B-hydroxybutyrate ester): no effect on seizure latency
